Measured values reported in ChEMBL document CHEMBL1130918, “Antineoplastic agents. 397: Isolation and structure of sesterstatins 4 and 5 from Hyrtios erecta (the Republic of Maldives)” (1998).
≈ marks a conversion by molar mass, not a printed value.

Key:
Assay type in all cases: functional
[1] = system: BXPC-3; assay: Inhibitory activity against growth of human pancreatic cancer cell line BXPC-3 was determined
[2] = system: DU-145; assay: Inhibitory activity against growth of human prostate cancer cell line DU-145 was determined.
[3] = system: FaDu; assay: Inhibitory activity against growth of human pharynx cancer cell line FADU was determined
[4] = system: NCI-H460; assay: Inhibitory activity against growth of human lung NSC cancer cell line NCI-H460 was determined
[5] = system: P388; assay: Effective dose that causes inhibition of growth of P388 leukemia cells was determined; conditions: Mus musculus, read-out: ED50 (the source's name)
[6] = system: P388; assay: Inhibitory activity against growth of P388 leukemia cells was determined; conditions: Mus musculus
[7] = system: RPMI-7951; assay: Inhibitory activity against growth of human melanomic cancer cell line RPMI-7951 was determined
[8] = system: U-251; assay: Inhibitory activity against growth of human CNS cancer cell line U251 was determined
[9] = system: DU-145; assay: Inhibitory activity against growth of human prostate cancer cell line DU-145 was determined
[10] = system: KAT-4 cell line; assay: Inhibitory activity against growth of human thyroid cancer cell line KAT-4 was determined
[11] = system: SW-1736; assay: Inhibitory activity against growth of human thyroid cancer cell line SW1736 was determined

SMILES | GI50 [1] [µg/mL] | GI50 [2] [µg/mL] | GI50 [3] [µg/mL] | GI50 [4] [µg/mL] | EC50 [5] [µg/mL] | GI50 [6] [µg/mL] | GI50 [7] [µg/mL] | GI50 [8] [µg/mL] | GI50 [9] [µg/mL] | GI50 [10] [µg/mL] | GI50 [11] [µg/mL]
CC1(C)CCC[C@]2(C)[C@H]3C[C@@H](O)[C@]4(C)c5cocc5[C@@H](O)C[C@H]4[C@]3(C)CC[C@@H]12 [SESTERSTATIN 5] | 2.2 (≈ 5.69 µM) | 1.9 (≈ 4.91 µM) | 1.9 (≈ 4.91 µM) | 2.5 (≈ 6.47 µM) | > 10 | > 10 | 2.1 (≈ 5.43 µM) | 1.9 (≈ 4.91 µM) | – | – | –
CC1(C)CCC[C@]2(C)[C@H]3C[C@@H](O)[C@]4(C)c5cocc5[C@H](O)C[C@H]4[C@]3(C)CC[C@@H]12 [SESTERSTATIN 4] | 1.6 (≈ 4.14 µM) | – | 2 (≈ 5.17 µM) | 1.8 (≈ 4.66 µM) | 4.87 (≈ 12.6 µM) | 4.9 (≈ 12.7 µM) | – | – | 1.6 (≈ 4.14 µM) | 2 (≈ 5.17 µM) | 2.1 (≈ 5.43 µM)
